{"source": "patent US20210052600A1", "about": "“THERAPEUTIC AGENTS FOR STRESS URINARY INCONTINENCE AND INCOTINENCE OF FECES” (Takeda Pharmaceutical Company Limited, priority 2017, published 2021)", "key": {"[1]": {"assay": "Comparison of plasma concentrations for urethra-closing effect and anti-obesity effect (analysis of Examples 1-9 and literature)", "conditions": "free form; extrapolated, 3.3-fold less than rat 670 ng/mL"}, "[2]": {"assay": "Plasma concentrations in rats 30 minutes after oral administration (effective plasma concentration at LPP10)", "conditions": "rat; measured concentration multiplied by ratio between dosage used and LPP10", "description": "(§1) Ten female rats of SD strain were anesthetized with isoflurane. In order to secure the same conditions as those for drug-administered animals, their spinal cord was transected at the T8-T9 (the eighth thoracic cord—the ninth thoracic cord) level. Then, a cannula for blood collection was inserted into the femoral artery. […] These drugs were each dissolved in 0.5% MC. Thirty minutes after oral administration, up to 250 μL of blood was collected from the femoral artery or the tail vein and treated with heparin. The collected blood was immediately cooled on ice and centrifuged under conditions involving 3,000 rpm and 4° C. for 10 minutes to obtain plasma. The plasma samples were stored under conditions of −80° C. until drug quantification.\n(§2) After thawing of the plasma samples, the internal standard compound was added thereto, and the mixture was then centrifuged under conditions of 5,250 rpm. The drug contained in 60 μL of the supernatant was quantified by LC-MS/MS."}, "[3]": {"conditions": "rat, in vivo, 2.5 mg/kg", "description": "as §1, §2"}, "[4]": {"tested_on": "anus-closing function increasing effect of Compound A′", "assay": "Influence of SB 242084 on Compound A′-induced rat anus-closing function increasing effect (Anal LPP)", "type": "in vivo", "conditions": "SB242084 0.3 mg/kg i.v. then Compound A′ 1 mg/kg i.v.; 5 minutes after Compound A′; n=9", "method": "Eighteen female SD rats were used. After overnight fasting, rats were intraperitoneally administered with urethane for anesthesia, and isoflurane inhalation was added during surgery. The abdomen was incised to expose the rectum, and a small incision of the rectum was made. A polyethylene catheter (SP61, Natsume) was inserted into the rectum through the rectum incision, and the tip of the catheter was positioned around 5 mm from the anal orifice. The other end of the catheter was connected with a pressure transducer and an infusion pump via three-way stopcocks, and the change in pressure in the rectum was measured using the pressure transducer, an electric signal amplifier, and an analog-to-digital converter. For administrating drugs, a polyethylene catheter (SP45, Natsume) was inserted into the femoral vein after exposing the vein by small incision.\nAfter recovery period from surgery, while saline was infused at a speed of 0.1 mL/sec into the rectum using an infusion pump, change in the measured pressure—was observed. […] The peak value of the pressure recorded in the rectum during the course of the procedures was defined as “an Anal LPP” in this Example. […] The Anal LPP was again measured in the same way 5 minutes after the administration with Compound A′. The difference in Anal LPP from the Pre value (increased amount of Anal LPP) was calculated. […]"}, "[5]": {"tested_on": "urethral resistance increasing effect of Compound A′", "assay": "Influence of antagonists (SB 242084, methiothepin) on urethral resistance increasing effect of Compound A′ in rats", "type": "in vivo, rat", "conditions": "mean ± SEM; for LPP Increase: Post minus Pre; for LPP Pre: before administration", "method": "Ninety female rats of SD strain were used. […] Isoflurane inhalation was added during the surgery, if necessary. In the experiment with intrathecal administration, the dura mater was exposed by laminectomy and then partially opened by incision, through which a catheter (PE-10) filled with saline was then implanted at the level of the L6-S1 site, followed by the closing of the incision. After opening of the abdomen, a catheter (PE-90) was inserted into the bladder. In order to secure reduced urethral resistance, unilateral nerve to iliococcygeus and pubococcygeus muscles was transected. For intraduodenal administration, another catheter (PE-50) was inserted into the duodenum in advance. The abdominal muscle and skin were each closed with sutures. Two (right and left) sites of abdominal skin near the diaphragm were cut to expose abdominal muscle. The bladder was emptied through the catheter, followed by the injection of 0.2 to 0.3 mL of Evans blue solution. Change in intravesical pressure was recorded using the bladder catheter via a pressure transducer, an electric signal amplifier, and an analog-to-digital converter. While change in intravesical pressure was recorded, the presence or absence of fluid leakage from the urethral orifice was observed under the electrical stimulation of the exposed abdominal muscle using an electrical stimulator and an isolator. […] The peak of the intravesical pressure during the stimulation of the abdominal muscle was measured, and the lowest pressure at which the fluid leakage was observed among the trials was defined as LPP for the electrical abdominal muscle stimulation method. In order to examine whether the urethral resistance increasing effect of Compound A′ is based on its agonistic potency on 5-HT2C receptors, SB 242084, methiothepin, or a vehicle was intravenously administered, and Compound A′ or a vehicle was intraduodenally administered 5 minutes later. SB 242084 was dissolved in a mixed solution of N,N-dimethylacetamide and polyethylene glycol 400 (1:1) and administered at 0.03 mg/0.5 mL/kg, 0.1 mg/0.5 mL/kg and 0.3 mg/0.5 mL/kg. Methiothepin was dissolved in saline and administered at 0.03 mg/0.5 mL/kg. 0.1 mg/0.5 mL/kg and 0.3 mg/0.5 mL/kg. Compound A′ was suspended in 0.5% MC and administered at 3 mg/mL/kg. LPP was measured again 30 minutes after Compound A′ administration. In order to examine where Compound A′ works in the body to increase urethral resistance, the blocking of the effect of Compound A′ was confirmed by blocking the functions of Compound A′ by giving methiothepin at a particular site in the body. Particularly, in the experiment with intrathecal administration, methiothepin or a vehicle was intrathecally administered, and Compound A′ or a vehicle was intraduodenally administered 5 minutes later. Methiothepin was dissolved in saline and 20 μL of the obtained solution was administered. Compound A′ was suspended in 0.5% MC and administered at 3 mg/mL/kg. LPP was measured again 30 minutes after Compound A′ administration.\nRegarding change in LPP before and after drug administration, the differences between the mean values of the Compound A′-treated and vehicle-treated groups were analyzed by the Student's t test or the Welch's test. In order to analyze the influence of the antagonists on the effect of Compound A′, the differences between the mean values of the SB 242084- or methiothepin- and Compound A′-administered group and the vehicle- and Compound A′-administered group were analyzed by the one-tailed Williams' test."}, "[6]": {"conditions": "SB 242084 0.03 mg/kg i.v. + Compound A′ 3 mg/kg i.d."}, "[7]": {"conditions": "SB 242084 0.1 mg/kg i.v. + Compound A′ 3 mg/kg i.d."}, "[8]": {"conditions": "SB 242084 0.3 mg/kg i.v. + Compound A′ 0 mg/kg i.d."}, "[9]": {"conditions": "SB 242084 0.3 mg/kg i.v. + Compound A′ 3 mg/kg i.d."}}}
{"molecule": "CC(C)N(C)c1cnc2c(n1)OCCNC2.Cl", "note": "[Compound A, N-methyl-N-(1-methylethyl)-6,7,8,9-tetrahydropyrazino[2,3-f][1,4]oxazeine-3-amine]", "values": [{"measurement": "average plasma concentration in a day (steady state) giving a body weight lowering effect greater than placebo by 3.8% in humans", "setting": "[1]", "value": 203, "unit": "ng/mL"}, {"measurement": "plasma concentration at LPP10", "setting": "[2]", "value": 61, "unit": "ng/mL"}, {"measurement": "plasma concentration 30 minutes after oral administration", "setting": "[3]", "value": "94.8 ± 24.1", "unit": "ng/mL"}]}
{"molecule": "Cc1cc2c(cc1Cl)N(C(=O)Nc1ccc(Oc3cccnc3C)nc1)CC2", "note": "[SB 242084]", "values": [{"measurement": "Anal LPP Increase", "setting": "[4]", "value": "-2.6±4.1", "unit": "cmH2O"}, {"measurement": "LPP Post", "setting": "[5]; SB 242084 0.03 mg/kg i.v. + Compound A′ 3 mg/kg i.d., 30 minutes after Compound A′", "value": "73.9 ± 8.7", "unit": "cmH2O"}, {"measurement": "LPP Increase", "setting": "[5]; [6]", "value": "29.9 ± 8.4", "unit": "cmH2O"}, {"measurement": "LPP Pre", "setting": "[5]; [6]", "value": "44.0 ± 7.4", "unit": "cmH2O"}, {"measurement": "LPP Post", "setting": "[5]; SB 242084 0.1 mg/kg i.v. + Compound A′ 3 mg/kg i.d., 30 minutes after Compound A′", "value": "57.6 ± 12.2", "unit": "cmH2O"}, {"measurement": "LPP Increase", "setting": "[5]; [7]", "value": "12.6 ± 6.3", "unit": "cmH2O"}, {"measurement": "LPP Pre", "setting": "[5]; [7]", "value": "45.0 ± 6.7", "unit": "cmH2O"}, {"measurement": "LPP Post", "setting": "[5]; SB 242084 0.3 mg/kg i.v. + Compound A′ 0 mg/kg i.d., 30 minutes after i.d. administration", "value": "49.3 ± 8.7", "unit": "cmH2O"}, {"measurement": "LPP Increase", "setting": "[5]; [8]", "value": "3.4 ± 4.6", "unit": "cmH2O"}, {"measurement": "LPP Pre", "setting": "[5]; [8]", "value": "45.9 ± 5.4", "unit": "cmH2O"}, {"measurement": "LPP Post", "setting": "[5]; SB 242084 0.3 mg/kg i.v. + Compound A′ 3 mg/kg i.d., 30 minutes after Compound A′", "value": "48.0 ± 6.9", "unit": "cmH2O"}, {"measurement": "LPP Increase", "setting": "[5]; [9]", "value": "3.8 ± 4.4", "unit": "cmH2O"}, {"measurement": "LPP Pre", "setting": "[5]; [9]", "value": "44.3 ± 7.0", "unit": "cmH2O"}]}
